For orientation: IC50 means the concentration that gives 50% inhibition. High values mean weaker potency, low ones greater potency.

This passage reports IC50 results from ChEMBL document CHEMBL6121026, “Targeted Therapeutics in Oncology and Neurology: Advances in Kinase Inhibition and Biomarkers for Brain Injury” (ACS Med Chem Lett, 2025).

For test [1], the target named is RAC-beta serine/threonine-protein kinase (Homo sapiens, UniProt P31751). Put plainly: Inhibition of Nano Luc-fused wild type AKT2 (unknown origin) expressed in HEK293 cells using luciferase substrate preincubated for 2 hrs followed by substrate added by NanoBRET Live cell target engagement assay. It counts as cell-based. In general terms: In BRET a luciferase serves as donor, and the signal depends on an acceptor being close.

Test [2] deals with RAC-alpha serine/threonine-protein kinase (Homo sapiens, UniProt P31749). Put plainly: Inhibition of Nano Luc-fused wild type AKT1 (unknown origin) expressed in HEK293 cells using luciferase substrate preincubated for 2 hrs followed by substrate added by NanoBRET Live cell target engagement assay. It counts as cell-based.
Chain of RAC-alpha serine/threonine-protein kinase (P31749 whole entry, the tested form may be a part): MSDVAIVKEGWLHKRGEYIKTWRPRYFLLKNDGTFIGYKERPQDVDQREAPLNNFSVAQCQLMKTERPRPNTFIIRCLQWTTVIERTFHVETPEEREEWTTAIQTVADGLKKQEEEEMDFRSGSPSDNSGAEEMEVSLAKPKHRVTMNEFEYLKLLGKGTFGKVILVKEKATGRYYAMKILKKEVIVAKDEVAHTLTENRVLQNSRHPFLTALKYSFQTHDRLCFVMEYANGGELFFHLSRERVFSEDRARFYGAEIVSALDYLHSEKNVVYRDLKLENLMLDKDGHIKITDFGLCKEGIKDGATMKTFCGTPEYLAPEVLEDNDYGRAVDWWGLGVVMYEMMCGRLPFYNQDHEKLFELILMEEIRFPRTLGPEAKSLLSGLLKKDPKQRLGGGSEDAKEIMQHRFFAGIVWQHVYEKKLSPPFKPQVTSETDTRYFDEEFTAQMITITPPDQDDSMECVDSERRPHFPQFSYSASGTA

Chain of RAC-beta serine/threonine-protein kinase (P31751 whole entry, the tested form may be a part): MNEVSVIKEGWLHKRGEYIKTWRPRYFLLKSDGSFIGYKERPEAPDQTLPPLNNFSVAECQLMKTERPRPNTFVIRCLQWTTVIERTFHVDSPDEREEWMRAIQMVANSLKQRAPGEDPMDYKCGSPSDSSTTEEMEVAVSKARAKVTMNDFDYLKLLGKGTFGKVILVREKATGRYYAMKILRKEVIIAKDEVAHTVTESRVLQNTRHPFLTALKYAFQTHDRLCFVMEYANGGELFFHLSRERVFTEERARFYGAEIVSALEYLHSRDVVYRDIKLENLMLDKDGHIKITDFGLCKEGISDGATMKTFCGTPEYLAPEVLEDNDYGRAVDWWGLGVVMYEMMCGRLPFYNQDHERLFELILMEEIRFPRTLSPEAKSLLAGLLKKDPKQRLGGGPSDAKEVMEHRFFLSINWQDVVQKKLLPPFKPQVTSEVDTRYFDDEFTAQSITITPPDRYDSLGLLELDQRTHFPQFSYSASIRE

Consider `Nc1ncccc1-c1nc2ccc(-c3ccccc3)nc2n1-c1ccc2c(c1)CC[C@@H]2NC(=O)c1cc(C=O)c2[nH]ncc2c1`, for which the IC50 in test [1] and in test [2] was ≤ 100 nM each time.
Regarding `CN1CCN(c2cccc(-c3ccc4nc(-c5cccnc5N)n(-c5ccc6c(c5)CC[C@@H]6NC(=O)c5ccc(O)c(C=O)c5)c4n3)c2)CC1`, the half-maximal inhibitory concentration (IC50) in test [1] and in test [2] was ≤ 10 nM each time.
`Nc1ncccc1-c1nc2ccc(-c3ccccc3)nc2n1-c1ccc2c(c1)CC[C@@H]2NC(=O)c1cc(C=O)c(O)c(F)c1F`: the 50% inhibitory concentration (IC50) in test [1] and in test [2] was ≤ 100 nM each time.
For `CC(=O)Nc1ccc(C(=O)N[C@H]2CCc3cc(-n4c(-c5cccnc5N)nc5ccc(-c6ccccc6)nc54)ccc32)cc1C=O`, the IC50 is ≤ 100 nM in test [1] and ≤ 10 nM in test [2].
In the same order, the values of `COc1cnn(-c2ccc3nc(-c4cccnc4N)n(-c4ccc5c(c4)CC[C@@H]5NC(=O)c4ccc(O)c(C=O)c4)c3n2)c1` are ≥ 2000 nM and ≤ 100 nM.
The like results for `CS(=O)(=O)Nc1ccc(C(=O)N[C@H]2CCc3cc(-n4c(-c5cccnc5N)nc5ccc(-n6cccn6)nc54)ccc32)cc1C=O` were, in that order, ≥ 2000 nM and ≤ 100 nM.
With `Nc1ncccc1-c1nc2ccc(-c3ccccc3F)nc2n1-c1ccc2c(c1)CC[C@@H]2NC(=O)c1ccc(O)c(C=O)c1`, the 50% inhibitory concentration (IC50) in test [1] and in test [2] was ≤ 100 nM throughout.
Consider `Nc1ncccc1-c1nc2ccc(-n3cccn3)nc2n1-c1ccc2c(c1)CC[C@@H]2NC(=O)c1cc(C=O)c(O)c(F)c1F`, for which the IC50 in test [1] and in test [2] was ≤ 100 nM in each case.
